Structures are written as SMILES.

In one assay the test system is HeLa. Nature of the assay: Cytotoxicity against human HeLa cells. In kind it is functional, cell-based.
Assay [1] has as its system SK-OV-3. Nature of the assay: Cell cycle arrest in human SKOV3 cells assessed as accumulation at G2/M phase at 5 nM by flow cytometry (reference value: 14%). In kind it is functional.
Assay [2] has as its system SK-OV-3. Nature of the assay: Cytotoxicity against human SKOV3 cells after 48 hrs by MTS assay. In kind it is functional, cell-based. The note with it: SK-OV-3, 48 h. For orientation: Tetrazolium dyes change colour on reduction, which living cells bring about.
Assay [3] concerns SK-OV-3. Nature of the assay: Cell cycle arrest in human SKOV3 cells assessed as accumulation at G1 phase at 5 nM by flow cytometry (reference value: 54%). In kind it is functional. (In flow cytometry, cells or beads pass a laser one at a time.)
Assay [4] concerns SK-OV-3. Nature of the assay: Cell cycle arrest in human SKOV3 cells assessed as accumulation at S phase at 5 nM by flow cytometry (reference value: 31%). In kind it is functional.
Assay [5] concerns HUVEC. Nature of the assay: Antivascular activity against HUVEC cells assessed as cell growth inhibition measured every 30 mins for 21 hrs by xCELLigence assay. In kind it is functional, cell-based. The note with it: Homo sapiens.
Another assay is filed under the species Bos taurus. Kind of assay: Inhibition of bovine tubulin polymerization at 5 uM measured every 30 secs for 60 mins by spectrophotometry relative to control.
The subject of assay [6] is HUVEC. Nature of the assay: Antivascular activity against HUVEC cells assessed as cell growth inhibition after 24 hrs by xCELLigence assay. In kind it is functional, cell-based. The note with it: Homo sapiens.
Assay [7] concerns HUVEC. Nature of the assay: Antivascular activity against HUVEC cells assessed as cell growth inhibition after 48 hrs by xCELLigence assay. In kind it is functional, cell-based. The note with it: Homo sapiens.

Molecule `COc1cc(-c2nn[nH]c2-c2ccc(N)cc2)cc(OC)c1OC` showed an IC50 in the assay on HeLa of 5000 nM.

For the molecule `COc1ccc(/C=C\c2cc(Br)c(OC)c(Br)c2)cc1O`, the Activity in the assay with SK-OV-3 [1] is listed as 54%.

Regarding `COc1ccc(/C=C\c2cc(I)c(OC)c(I)c2)cc1O`, the Activity in the assay with SK-OV-3 [1] came to 84%.

On to `COc1ccc(/C=C\c2cc(OC)c(OC)c(OC)c2)cc1O` [COMBRETASTATIN A4], for which the figures for the half-inhibitory concentration (IC50) in the assay on SK-OV-3 [2] and with HUVEC [5] were 1.7 nM and 2.2 nM, respectively. For the same molecule, the results for the Activity in the assay with SK-OV-3 [3], in the assay on SK-OV-3 [4] and in the assay on SK-OV-3 [1] were 40%, 23% and 31%, respectively. Moreover, in the assay listed under Bos taurus, the inhibition was 57.6%.

With `COc1ccc(/C=C\c2cc(OC)c(OC)c(OC)c2)c(O)c1O` [COMBRETASTATIN A-1], the IC50 in the assay with HUVEC [6] came to 2.6 nM; with HUVEC [7], 4.1 nM.

The IC50 is the concentration needed to halve the response being measured. A word on the inhibition: it is the drop in the measured response relative to a control, in per cent. The low end stands for a weak effect, the high end for a strong effect.

The values are drawn from ChEMBL document CHEMBL1944536, “Increased endothelial cell selectivity of triazole-bridged dihalogenated A-ring analogues of combretastatin A-1” (Bioorg Med Chem, 2012).
